# Assay results taken from paper PMC10745061 (Marine Drugs, 2023).
# Like-named read-outs stand apart in the source and are kept apart here. Where a SMILES comes first, the peptide text is derived from it. Bridges are numbered along the chain shown (N, C = ends).
# Columns and labels:
# [1] = tested on: human red blood cells (hRBCs); assay: Hemolysis, hemoglobin release assay; assay type: cell-based; conditions: hemoglobin release assay, 2 h incubation, two independent donors
# Method: Figure 3 Biological activity of the peptides towards human cells. (A) Hemolytic effect on human red blood cells (hRBCs) after 2 h incubation (the hemoglobin release assay). (B) Cytotoxicity towards transformed human embryonic kidney cells (HEK293T) after 16 h incubation (the resazurin assay).
# The hemolytic activity of the peptides was tested against the fresh suspension of human red blood cells (hRBC) using the hemoglobin release assay, as described previously. Two experiments were performed with hRBC from blood samples of independent donors. The quantitative data are represented as average means with standard deviations. The cytotoxic effect of the peptides was tested on transformed human embryonic kidney cells (HEK293T) using the resazurin assay. The technique is based on the ability of live cell dehydrogenases to reduce a blue resazurin to pink and fluorescent resorufin. A total of 10^4 cells per well in Dulbecco’s modified Eagle’s medium (DMEM/F12) supplemented with 10% FBS were placed into 96-well plates for 24 h in the CO2-incubator (5% CO2, 37 °C). […] Fluorescence of the formed resorufin was measured with the microplate reader AF2200 (Eppendorf, Germany) using the following channel: λExc = 535 nm, λEm = 595 nm. The fluorescence signal in the wells containing cells cultured without the peptides was assumed to represent 100% cell viability. […]
# [2] = tested on: E. coli K12 SBS 1936 biofilm; assay: Effect on established biofilm, MTT assay; assay type: cell-based, Escherichia coli; conditions: at 2 × MIC (4 μM), 24 h pre-formed biofilm, 16 h treatment in LB, 37 °C
# Method: Bacterial biofilms play an important role in UTIs, being responsible for their persistence. Therefore, the eradication of mature biofilms is an extremely challenging task because high concentrations or doses of antibacterial agents are required. Here, the ability of HfBRI-25 to disrupt established biofilms was evaluated as a number of viable bacteria in biofilm using the MTT assay. According to our previous data, E. coli K12 SBS 1936 was chosen as a strong biofilm-producer that can form it in different media.
# E. coli K12 SBS1936 was grown in LB broth overnight at 37 °C and diluted in the same media to obtain 1 × 10^6 CFU/mL. A total of 100 μL of bacterial suspension was added to each well of the 96-well polystyrene plate and grown at 32 °C and 120 rpm for 24 h. The wells were washed twice with sterile water to remove non-adherent cells. In parallel, 100 μL of peptide or ciprofloxacin solutions, serially diluted in LB medium using a separate 96-well polystyrene plate, were added to each well with pre-formed biofilm and incubated at 37 °C and 180 rpm for 16 h. Biofilm viability was assessed by using the MTT reagent (Sigma). […] Absorbance of each well was measured at 570 nm. Bacterial survival was calculated as a percentage relative to samples without antimicrobial agent. […]
# [3] = 25% human serum in PBS pH 7.4, 37 °C; for a/b (%), ratio of the peptide forms in serum: RP-HPLC, ratio estimated from MALDI-TOF MS, two independent experiments
# E. coli ATCC 25922 = conditions: BALB/c mice, n = 5, i.p. infection 10^6 CFU with 2.5% mucin; 10 mg/kg i.p. at 1 h and 4 h after infection; 7 days
# E. coli = assay type: cell-based, Escherichia coli; conditions: panel incl. clinically isolated UPEC, MDR and XDR strains; regardless of resistance profile, biofilm production, presence of serum
# Method: The clinical isolates were collected and provided by Sechenov First Moscow State Medical University hospital and the State Collection of Pathogenic Microorganisms “Obolensk” (SRCAMB collection). The resistant to conventional antibiotics strains were defined as extensively drug resistant (XDR), according to [47]. Bacterial test cultures were grown in a Mueller–Hinton broth (MHB, Sigma) at 37 °C to mid-log phase and then diluted with the 2× MH medium supplemented with 1.8% NaCl (and, optionally, with fetal bovine serum (FBS, Gibco) at different concentrations) or without salt so that to reach a final cell concentration of 10^6 CFU/mL. Moreover, 50 μL of the obtained bacterial suspension were added to aliquots of 50 μL of the peptide solutions serially diluted with sterilized 0.1% bovine serum albumin (BSA) in 96-well flat-bottom polystyrene microplates (Eppendorf #0030730011). After incubation for 24 h at 37 °C and 950 rpm on the plate thermoshaker (Biosan), minimum inhibitory concentrations (MIC) were determined as the lowest peptide concentrations that prevented growth of a test microorganism observed as visible turbidity. […] In the case of Mycobacterium smegmatis, MICs were determined in the Middlebrook 7H9 medium (HiMedia). The results were expressed as the median values determined on the basis of at least three independent experiments performed in triplicate.
# Escherichia coli ML-35p = conditions: salt-containing MHB, FBS at different concentrations up to 15%
# Text: The results were expressed as the median values determined on the basis of at least three independent experiments performed in triplicate.
structure (smiles),measurement,setting,value
"CC[C@H](C)[C@@H]1NC(=O)[C@H](Cc2c[nH]c3ccccc23)NC(=O)[C@H](C(C)C)NC(=O)[C@@H]2CSSC[C@H](NC(=O)[C@H](CCCNC(=N)N)NC(=O)[C@H](CCCNC(=N)N)NC(=O)[C@H](C(C)C)NC(=O)[C@H](CCCNC(=N)N)NC(=O)[C@H](CCCNC(=N)N)NC(=O)CNC(=O)[C@H](CC(N)=O)NC(=O)[C@H](C(C)C)NC(=O)[C@H](CO)NC1=O)C(=O)N[C@@H](Cc1c[nH]c3ccccc13)C(=O)NCC(=O)N[C@@H](CO)C(=O)NCC(=O)N[C@H](C(=O)O)CSSC[C@H](NC(=O)CNC(=O)[C@H](CCCNC(=N)N)NC(=O)[C@@H]1CCCN1C(=O)[C@@H](N)CO)C(=O)N[C@@H](Cc1ccccc1)C(=O)N2 [HfBRI-25] (H-SPRGCFCVWISVNGRRVRRCWGSGC-OH; disulfide 5-25, 7-20; N-terminus and C-terminus assumed)",Hemolytic effect on human red blood cells,[1],absence of hemolytic and cytotoxic properties
same,Bacterial viability inside established biofilm,[2],minimal residual bacterial viability
same,Part of the peptide converted into 23-residue form b,[3]; after 1 h of incubation,More than half
same,Two active forms (a/b) remained intact in serum,"[3]; after 24 h, RP-HPLC peak area, mean of two independent experiments",more than 80%
same,"a/b (%), ratio of the peptide forms in serum",[3]; time 1 h,39%
same,"a/b (%), ratio of the peptide forms in serum",[3]; time 3 h,6%
same,"a/b (%), ratio of the peptide forms in serum",[3]; time 24 h,0%
same,Survival / therapeutic efficacy,E. coli ATCC 25922,100%
same,MIC value against all tested E. coli strains,E. coli,1 to 2 µM
same,MIC in the presence of FBS at different concentrations,Escherichia coli ML-35p,1 µM
